13 compounds from article PMC6449538, “Antimicrobial Activity of Selected Antimicrobial Peptides Against Planktonic Culture and Biofilm of Acinetobacter baumannii” (Probiotics and Antimicrobial Proteins, 2018) can be followed below.

Values after ≈ are worked out from the molar mass of the structure shown. Like-named read-outs stand apart in the source and are kept apart here. Where no end group is shown, it is not given here.

For assay [1], the system named is A. baumannii ATCC 19606. The experiment in a line: microbe, parasite or virus in culture. The assay is classed as cell-based, Acinetobacter baumannii. The method, then:
(§1) The A. baumannii ATCC 19606 strain was acquired from the American Type Culture Collection and prepared in line with the manufacturer’s instructions. The culture was stored in Roti®-Store Cryo-Vials (Carl Roth GmbH, Karlsruhe, Germany) at − 20 °C. Before the tests, the bead with cryo-protected bacteria was transferred into fresh MHB (Biocorp, Warsaw, Poland) and incubated for 24 h at 37 °C. Then, the culture was seeded on MHA plates and incubated as just mentioned. The agar cultures prepared in this way were used for further experiments. Cell densities for all assays were adjusted spectrophotometrically (Multiskan™ GO Microplate Spectrophotometer, Thermo Scientific) at 600 nm.
The MICs and MBCs were determined with the reference to the Clinical and Laboratory Standards Institute guidelines. MICs were determined by broth microdilution method. For this purpose, initial inoculums of bacteria (0.5 × 10^5 CFU/mL) in MHB were exposed to a series of concentrations (0.5–256 μg/mL) of the compounds and incubated for 18 h at 37 °C. The experiments were conducted on 96-well microtiter polystyrene plates with the final volume of 100 μL. The MIC was taken as the lowest drug concentration at which a noticeable growth of microorganisms was inhibited. In parallel, the MIC wells, two above and one below (positive control), were cultured on a MHA plate. […] All experiments were conducted in triplicate.

The test system of assay [2] is A. baumannii ATCC 19606 biofilm. Type of assay: cell-based, Acinetobacter baumannii. How it is done: as §1
The antibiofilm activity was determined on 96-well flat-bottomed microtiter polystyrene plates and 0.5-cm fragments of tracheal tubes (RIM-75, ZARYS International Group, Zabrze, Poland), with resazurin (7-hydroxy-3H-phenoxazin-3-one 10-oxide) as a cell viability reagent. The first part included assay on 96-well plates. To do this, the plates were filled with 100 μL of the initial inoculums of bacteria (0.5 × 10^7 CFU/mL) in the MHB and incubated for 24 h at 37 °C. Then, the wells were rinsed three times with PBS to remove non-adhered cells and the fresh medium with a series of concentrations (0.5–256 μg/mL) of the compounds was added. After 24 h of incubation, 20 μL of resazurin (4 mg/mL) was added to each well and the MBEC values were read. The assay on tracheal tube fragments was conducted using 24-well polystyrene plates. Briefly, the tracheal tube fragments were dipped in 1 mL of the bacterial inoculum (0.5 × 10^7 CFU/mL) and incubated at 37 °C. After 24 h of incubation, the test fragments were rinsed three times with PBS and transferred into other wells containing the fresh medium with a series of concentrations of the test compounds. Subsequently, the plates were incubated again for 24 h at 37 °C. Then, 200 μL of resazurin was added and the MBEC was read. All experiments were conducted in triplicate.

Where [3] appears, read: Acinetobacter baumannii, ATCC19606, MIC wells cultured on MHA plate, 24 h at 37 °C, no visible growth, triplicate, read-out: MBC.
Where [4] appears, read: 24 h biofilm on 0.5-cm tracheal tube fragments, 24 h treatment at 37 °C, resazurin read-out, triplicate.
Where [5] appears, read: 24 h biofilm on polystyrene 96-well plates, 24 h treatment at 37 °C, resazurin read-out, triplicate.
[6] abbreviates: Acinetobacter baumannii, ATCC19606, broth microdilution (CLSI), MHB, inoculum 0.5 × 10^5 CFU/mL, 18 h at 37 °C, polystyrene 96-well plates, triplicate, read-out: MIC.
[7] abbreviates: MIC wells cultured on MHA plate, 24 h at 37 °C, no visible growth, triplicate.
Setting [8] is: broth microdilution (CLSI), MHB, inoculum 0.5 × 10^5 CFU/mL, 18 h at 37 °C, polystyrene 96-well plates, triplicate.

For `O=C(O)c1cn(C2CC2)c2cc(N3CCNCC3)c(F)cc2c1=O` [Ciprofloxacin, reference compound], the MBC in assay [1] (setting [3]) was 1 µg/mL (≈ 3.02 µM). The “MBEC^tt” value in assay [2] (setting [4]) is 1 µg/mL. Also, in assay [2] (setting [5]), the MBEC was 2 µg/mL.

As for `CC[C@H]1OC(=O)[C@H](C)[C@@H](O[C@H]2C[C@@](C)(OC)[C@@H](O)[C@H](C)O2)[C@H](C)[C@@H](O[C@@H]2O[C@H](C)C[C@H](N(C)C)[C@H]2O)[C@](C)(O)C[C@@H](C)C(=O)[C@H](C)[C@@H](O)[C@]1(C)O` [Erythromycin, reference compound], the MBC in assay [1] (setting [3]) came out at 32 µg/mL (≈ 43.6 µM). Moreover, in assay [1] (setting [6]), the MIC came to 32 µg/mL (≈ 43.6 µM). Further, in assay [2] (setting [4]), the “MBEC^tt” value was determined as 16 µg/mL. Moreover, the MBEC in assay [2] (setting [5]) turned out to be 32 µg/mL.

For the compound `CNC(C)C1CCC(N)C(OC2C(N)CC(N)C(OC3OCC(C)(O)C(NC)C3O)C2O)O1` (stereo not drawn) [Gentamicin, reference compound], the MBC in assay [1] (setting [3]) stood at 32 µg/mL (≈ 67 µM). The MIC in assay [1] (setting [6]) was found to be 16 µg/mL (≈ 33.5 µM). For the same compound, in assay [2] (setting [4]), the “MBEC^tt” value stood at 32 µg/mL. Moreover, in assay [2] (setting [5]), the MBEC was determined as 32 µg/mL.

As for `CCN1CCN(C(=O)N[C@@H](C(=O)N[C@@H]2C(=O)N3[C@@H]2SC(C)(C)[C@@H]3C(=O)O)c2ccccc2)C(=O)C1=O` [Piperacillin, reference compound], the MBC in assay [1] (setting [3]) amounted to 128 µg/mL (≈ 247 µM). The MIC in assay [1] (setting [6]) is 64 µg/mL (≈ 124 µM). For the same compound, the “MBEC^tt” value in assay [2] (setting [4]) is above 512 µg/mL; in assay [2] (24 h biofilm on 0.5-cm tracheal tube fragments, 24 h treatment at 37 °C, resazurin read-out, triplicate, listed as piperacillin) it was “failed to eradicate the biofilm at any concentration”. In addition, in assay [2] (setting [5]), the MBEC entry was “failed to eradicate the biofilm at any concentration”.

With `CO[C@H]1/C=C/O[C@@]2(C)Oc3c(C)c(O)c4c(O)c(c(/C=N/N5CCN(C)CC5)c(O)c4c3C2=O)NC(=O)/C(C)=C\C=C\[C@H](C)[C@H](O)[C@@H](C)[C@@H](O)[C@@H](C)[C@H](OC(C)=O)[C@@H]1C` [Rifampicin, reference compound], the MBC in assay [1] (setting [3]) was 4 µg/mL (≈ 4.86 µM). Moreover, in assay [1] (setting [6]), the MIC was found to be 4 µg/mL (≈ 4.86 µM). In addition, in assay [2] (setting [4]), the “MBEC^tt” value came out at 4 µg/mL. Further, the MBEC in assay [2] (setting [5]) is 8 µg/mL.

For the compound `CN(C)[C@@H]1C(O)=C(C(N)=O)C(=O)[C@@]2(O)C(O)=C3C(=O)c4c(O)cccc4[C@@](C)(O)[C@H]3C[C@@H]12` [Tetracycline, reference compound], in assay [1] (setting [3]), the MBC is 4 µg/mL (≈ 9 µM). Besides, the MIC in assay [1] (setting [6]) turned out to be 2 µg/mL (≈ 4.5 µM). For the same compound, the “MBEC^tt” value in assay [2] (setting [4]) worked out at 4 µg/mL. In addition, the MBEC in assay [2] (setting [5]) is 16 µg/mL.

Regarding FLPLIGRVLSGIL-NH2 [Temporin A], the MIC in assay [1] (ATCC 19606, 18 h) is 128 µg/mL. In addition, the MBC in assay [1] (ATCC 19606, 24 h) stood at 128 µg/mL. Further, the “MBEC^tt” value in assay [2] (ATCC 19606, 24 h) was 256 µg/mL.

GIGKFLKKAKKFGKAFVKILKK-NH2 [Pexiganan] came in with an MIC in assay [1] (ATCC 19606, 18 h) of 2 µg/mL. Moreover, the MBC in assay [1] (ATCC 19606, 24 h) was found to be 4 µg/mL. For the same compound, in assay [2] (ATCC 19606, 24 h), the MBEC turned out to be 256 µg/mL and the “MBEC^tt” value is 32 µg/mL.

On to GLFDIIKKIAESF-NH2 [Aurein 1.2], for which the MBC in assay [1] (setting [7]) came to 16 µg/mL. The compound further gave an MIC in assay [1] (setting [8]) of 16 µg/mL. Further, the “MBEC^tt” value in assay [2] (setting [4]) amounted to 32 µg/mL. Further, the MBEC in assay [2] (setting [5]) turned out to be 64 µg/mL.

In assay [1] (ATCC 19606, 18 h), GLFDVIKKVASVIGGL-NH2 [Citropin 1.1] had an MIC of 16 µg/mL. In assay [1] (ATCC 19606, 24 h), this compound had an MBC of 16 µg/mL. In assay [2] (ATCC 19606, 24 h), the MBEC is 256 µg/mL and the “MBEC^tt” value is 32 µg/mL.

For ILRWPWWPWRRK-NH2 [Omiganan], the MIC in assay [1] (ATCC 19606, 18 h) was 32 µg/mL. In assay [1] (ATCC 19606, 24 h), this compound registered an MBC of 64 µg/mL. Moreover, in assay [2] (ATCC 19606, 24 h), the MBEC came to 256 µg/mL and the “MBEC^tt” value is 128 µg/mL.

As to KRRWPWWPWRLI-NH2 [r-Omiganan], the MIC in assay [1] (ATCC 19606, 18 h) turned out to be 16 µg/mL. The same compound had an MBC in assay [1] (ATCC 19606, 24 h) of 16 µg/mL. In assay [2] (ATCC 19606, 24 h), the MBEC was 256 µg/mL and the “MBEC^tt” value was found to be 128 µg/mL.

For the compound KWKLFKKIGAVLKVL-NH2 [CAMEL], the MBC in assay [1] (setting [7]) is 4 µg/mL. The same compound displayed an MIC in assay [1] (setting [8]) of 2 µg/mL. Also, in assay [2] (setting [4]), the “MBEC^tt” value was determined as 64 µg/mL. In addition, in assay [2] (setting [5]), the MBEC amounted to 128 µg/mL.
